We go through 90 compounds from PubChem BioAssay AID720513 (Broad Institute, 2013).

Records with an inconclusive call do not appear. Bounds are passed on as bounds.

The test system of this experiment is U2OS PGC1a acetylation AlphaLISA, overnight. Nature of the experiment: activators raising PGC1a acetylation in cells, dose response, cell-based, cherry-picked samples, set 6 (AID 720513).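 Also: cells made to overexpress flag tagged PGC1a plus GCN5 acetyltransferase by viral infection.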
`O=C(CCc1nc2ccccc2c(=O)[nH]1)Nc1ccc(N2CCCCC2)cc1`: the AC40 was 4.4 µM. Then `CC(OC(=O)C1CCCC1)C(=O)Nc1ccc(C(N)=O)cc1` (stereo not given), with 15.8 µM; and `COc1ccc(CN2CCn3ncc(C(=O)Nc4ccccc4)c3C2=O)cc1`, with 13.4 µM; and `CC1CC(NS(=O)(=O)c2cccs2)CC(C)(C)C1` (stereo not given), with 0.437 µM. Take `O=C(CC1SC(=Nc2ccc3c(c2)OCCO3)NC1=O)Nc1ccc(F)cc1F` (stereo not given): the AC40 is 0.191 µM. Turning to `C[C@@H]1CN([C@@H](C)CO)C(=O)c2c(c3ccccc3n2C)-c2ccccc2CO[C@@H]1CN(C)C(=O)Nc1ccc2c(c1)OCO2`, the AC40 was 7.87 µM.

Regarding `O=C(CSc1nc2ccccc2c(=O)n1CC1CCCO1)N1CCN(c2ccccc2)CC1` (stereo not given), the AC40 is 18.6 µM. `Cc1coc2cc3oc(=O)c(CCC(=O)NC4CC4)c(C)c3cc12`: the AC40 was 1.6 µM.

For `OC(c1ccccc1)(C1CCCCC1)C(CN1CCOCC1)c1ccccc1` (stereo not given), the AC40 is 0.634 µM. Under `Cc1ccc(CN(CC(O)COc2cccc3[nH]cc(C)c23)C(C)(C)C)cc1` (stereo not given) stands 2.49 µM; under `COc1cccc(S(=O)(=O)N(C)C[C@@H]2Oc3cc(C4=CCCC4)ccc3S(=O)(=O)N([C@H](C)CO)C[C@@H]2C)c1`, 13 µM; under `COC(=O)c1c(NC(=O)COC(=O)[C@@H](NS(=O)(=O)c2ccccc2)C(C)C)sc2c1CCC2`, 13.5 µM. Turning to `Cc1cccc(-c2ccc(C3[C@@H]4CN(C(=O)C5CCCCC5)C[C@H]3N4)cc2)c1` (stereo not given in full), the AC40 is 6.09 µM. Under `O=S(=O)(c1cccc(F)c1)N1CCN(Cc2cc3c(cc2Br)OCCO3)CC1` stands 0.411 µM; under `COc1ccc(CCNCc2ccc(-c3ccccc3)cc2)cc1OC`, 2.23 µM; under `O=C(CCCn1c(=O)[nH]c2cc(Cl)ccc2c1=O)NCCC1=CCCCC1`, 0.371 µM. As to `O=C(Nc1ccccc1)C1=C[C@@H](c2ccc(C(F)(F)F)cc2)C[C@@H](OCc2ccc(CO)cc2)O1`, the AC40 is less than 2.6 µM. `Cc1ccc(CNC(=O)C2CC(c3ccc([N+](=O)[O-])cc3)=NO2)cc1` (stereo not given): the AC40 was 4 µM. Under `O=C(Nc1cnc2ccccc2c1)c1cccnc1` stands 0.651 µM.

In the case of `Nc1ccc(N2CCCCC2)cc1N1CCCCC1`, the AC40 is 5.98 µM. Under `Cc1cc(C)c2c(-n3cccc3)c(C(=O)NNS(=O)(=O)c3ccccc3)sc2n1` stands 4.82 µM; under `O=C(NC(Nc1cc(C(F)(F)F)ccc1Cl)C(=O)c1ccccc1)c1ccccc1` (stereo not given), 13.6 µM; under `COc1ccc(C)cc1NS(=O)(=O)c1ccc(NC(=O)CN(c2cc([N+](=O)[O-])ccc2C)S(C)(=O)=O)cc1`, 0.426 µM. Then `Cc1cccc(C(=O)Nc2ccc(C(=O)/C=C/c3cccnc3)cc2)c1`, with 2.34 µM; and `COc1ccc(CNc2ccc(-c3ccc(OC)cc3)nn2)cc1`, with 1.47 µM; and `Cc1ccc(NC(=O)CN(C)S(=O)(=O)c2cccs2)c(Br)c1`, with 14.7 µM.

Consider `CCOC(=O)c1ccccc1NS(=O)(=O)c1ccc(OCC)cc1`, for which the AC40 was 3.3 µM.

In the case of `COc1ccc(S(=O)(=O)N(C)C[C@@H]2Oc3cc(C#CC4CC4)ccc3S(=O)(=O)N([C@@H](C)CO)C[C@@H]2C)cc1`, the AC40 was 15.2 µM.

Take `COc1ccc([N+](=O)[O-])cc1NCc1ccccc1`: the AC40 was 2.95 µM. Then `Cc1ccccc1-c1ccc([C@@H]2[C@H](CO)N3CCCCN(C(=O)Nc4cccc(F)c4)C[C@@H]23)cc1`, with 8.22 µM; and `O=C(NCCC(c1ccccc1)c1ccccc1)c1ccc(Br)o1`, with 12.9 µM; and `COc1ccc(CCNC(=O)COc2ccc(S(=O)(=O)N3CCCC3)cc2)cc1`, with 19.3 µM. Under `O=C(NCc1csc(-c2cccs2)n1)c1cccc(Cl)c1` stands 6.13 µM; under `O=C(CS(=O)CC(=O)Nc1cccc2c1CCCC2)Nc1ccc(F)cc1` (stereo not given), 10.9 µM. Under `CN1CCN(c2ccc(CNC(=O)c3ccc(-c4ccnn4C)c4ccoc34)cc2)CC1` stands 9.27 µM.

As to `O=C1NCN(c2ccccc2)C12CCN(C(c1cc3ccccc3o1)c1nnnn1C1CCCCC1)CC2` (stereo not given), the AC40 is 1.78 µM.

For `COc1cccc(C(=O)/C=C/c2ccc(OCC#N)c(OC)c2)c1`, the AC40 is 6.74 µM. Then `COc1ccccc1-c1ccc2c(c1)O[C@@H](CN(C)Cc1ccc3c(c1)OCO3)[C@@H](C)CN([C@@H](C)CO)S2(=O)=O`, with 10.6 µM. Under `CCOC(=O)C1CCCN(S(=O)(=O)c2ccc3c(c2)NC(=O)CO3)C1` (stereo not given) stands 0.439 µM; under `Cc1ccc2c(c1)CC1(CN2C)C(=O)NC(=O)N(C(C)C)C1=O` (stereo not given), 12 µM. Then `COc1ccc2c(c1)C(C)=CC(C)(C)N2S(=O)(=O)c1ccc(Br)cc1`, with 2.69 µM; and `CCN(CC)c1ccc(N)cc1S(=O)(=O)Nc1ccccc1OC`, with 3 µM. Turning to `Cc1ccc(Nc2nnc(C)c3ccccc23)c(C)c1`, the AC40 was 2.09 µM.

In the case of `O=C(Cc1ccccc1)N1CCN(c2ccc([N+](=O)[O-])cc2)CC1`, the AC40 was 0.523 µM. Under `CN1Cc2c(N3CCOCC3)nc3sc(C(=O)c4ccc(Br)cc4)c(N)c3c2CC1(C)C` stands 0.996 µM. Then `COC(=O)c1ccc(NC(=O)C23CC4CC(C2)CC(n2cnc(Cl)n2)(C4)C3)cc1`, with 1.82 µM; and `CCOC(=O)C1=CC[C@@H](c2ccccc2)N(S(=O)(=O)c2ccc(C)cc2)[C@H]1c1ccc(CC)cc1`, with 0.785 µM. Under `COc1ccc(NC(=O)N(C)C[C@H]2OCc3ccccc3-c3c(n(C)c4ccccc34)C(=O)N([C@@H](C)CO)C[C@H]2C)c(OC)c1` stands 3.5 µM.

As for `COc1ccc(S(=O)(=O)N2CCOCC2)cc1NC(=O)CCNC(=O)c1ccc(Cl)cc1`, the AC40 was 0.772 µM. Consider `CC1=CC(C)(C)N2C(=O)C3(SCC(=O)N3c3ccc(F)cc3)c3cc(C)cc1c32` (stereo not given), for which the AC40 was 0.966 µM.

Turning to `C[C@@H]1CN([C@@H](C)CO)C(=O)c2c(c3ccccc3n2C)-c2ccccc2CO[C@@H]1CN(C)C(=O)c1cc(Cl)cc(Cl)c1`, the AC40 was 12.7 µM.

As to `CC1(Cc2ccc(Cl)s2)C(=O)Nc2c(Cl)ccc(Cl)c21` (stereo not given), the AC40 is 11.3 µM. Under `CC1CCN(S(=O)(=O)c2ccc(NC(=O)c3ccccc3F)cc2)CC1` stands 15.3 µM; under `CCOC(=O)c1oc2ccc(S(=O)(=O)N3CCC(C)CC3)cc2c1C`, 17.1 µM. Then `Oc1ccc(Nc2nnc(-c3ccc(O)cc3)c3ccccc23)cc1`, with 1.57 µM; and `C[C@@H]1CN([C@H](C)CO)C(=O)c2c(c3ccccc3n2C)-c2ccccc2CO[C@@H]1CN(C)C(=O)c1ccc(F)cc1`, with 6.65 µM; and `COc1ccc(C(c2nnnn2C2CCCC2)N2CCC(C)CC2)c(OC)c1` (stereo not given), with 1.86 µM. For `O=C(c1ccc(NC(=O)C2(c3ccccc3)CCOCC2)cc1)N1CCOCC1`, the AC40 is 16.6 µM.

As for `CCn1c(=S)[nH]c2cc(S(=O)(=O)N3CCCCC3)ccc21`, the AC40 is 1.62 µM. Under `O=C(Cc1ccccc1)Nc1ccc(NC(=O)c2ccco2)nc1` stands 1.44 µM; under `C[C@@H]1CN([C@H](C)CO)C(=O)c2c(c3ccccc3n2C)-c2ccccc2CO[C@@H]1CN(C)C(=O)c1ccccc1`, 5.94 µM; under `Cc1sc(NC(=O)c2cccs2)nc1-c1ccccc1`, 0.581 µM. Then `C[C@@H]1CN([C@@H](C)CO)C(=O)c2c(c3ccccc3n2C)-c2ccccc2CO[C@@H]1CN(C)C(=O)Nc1ccccc1C(F)(F)F`, with 6.99 µM; and `CCOC(=O)c1ccc(NC(=O)N2CCc3ccccc3C2)cc1`, with 0.478 µM; and `c1coc(CN(Cc2cccs2)Cc2nnnn2C2CCCCC2)c1`, with 2.52 µM. Under `CCC(C)(C)n1nnnc1CN(Cc1ccc(Cl)cc1)Cc1ccco1` stands 1.39 µM; under `CN1/C(=C\C(=O)c2cccc(S(=O)(=O)N3CCCCC3)c2)C(C)(C)c2ccccc21`, 10.9 µM; under `O=S(=O)(c1ccccc1)N(CC(F)(F)F)c1ccc(C(O)(C(F)(F)F)C(F)(F)F)cc1`, 6.8 µM.

As for `O=C(NCc1cccnc1)c1ccc(NC(=O)c2ccc(Br)cc2)cc1`, the AC40 is less than 0.16 µM. Under `CC(Sc1nc2ccccc2s1)C(=O)NC1CCCc2ccccc21` (stereo not given) stands 12.4 µM. Under `O=C(Cc1ccccc1)Nc1ccc(NC(=O)c2cccs2)cc1` stands 1.23 µM; under `Cc1c(OCc2ccc(C(=O)O)cc2)ccc2c(-c3ccccc3)cc(=O)oc12`, 7.28 µM.

Turning to `CCOc1ccc(Nc2oc(-c3ccc(Cl)cc3)nc2C#N)cc1`, the AC40 was 3.09 µM. Under `COc1ccc(C(c2ccc(OC)cc2)C(Cl)(Cl)Cl)cc1` stands 0.729 µM; under `COc1cccc(NC(=O)N(C)C[C@H]2OCc3ccccc3-c3c(n(C)c4ccccc34)C(=O)N([C@@H](C)CO)C[C@@H]2C)c1`, 18.3 µM. Then `Cc1ccc(S(=O)(=O)N(Cc2ccc(F)cc2)Cc2ccco2)cc1`, with 6.76 µM; and `CC1(C)CC(=O)C2=C(C1)Nc1ccccc1N1C(=O)c3ccccc3C21` (stereo not given), with 2.15 µM; and `COCCN(C)Cc1nc(C(c2ccccc2)c2ccccc2)no1`, with 9.12 µM. Then `CC(C)C(OC(=O)c1cccs1)C(=O)NC1CCCCC1` (stereo not given), with 2.58 µM; and `Cc1cc(C)nc(NC(=O)c2c(-c3ccccc3Cl)noc2C)n1`, with 16.8 µM.

`N#C/C(=C(/O)c1ccco1)c1nc2ccccc2[nH]1`: the AC40 is 0.841 µM. Then `COc1cc(CNC(=O)c2cc(-c3cc(C)cc(F)c3)n[nH]2)cc(OC)c1`, with 15.8 µM. On to `Cc1nn2c(NCCCN3CCOCC3)c3c(nc2c1-c1ccccc1)CCC3`, for which the AC40 was 3.72 µM. Regarding `COC(=O)c1ccc(NC(=O)c2cccnc2)cc1`, the AC40 was 1.86 µM.

Regarding `CC(C)(C)n1nnnc1CN(Cc1ccc(F)cc1)Cc1ccco1`, the AC40 is 1.73 µM. As for `CC(=O)n1cc([C@@H]2C=C(C(=O)Nc3ccccc3)O[C@H](OCc3ccc(CO)cc3)C2)c2ccccc21`, the AC40 was 4.65 µM. Then `CSc1nc(NCc2ccco2)c2ccccc2n1`, with 13.6 µM; and `OC(COc1ccc(CNCCc2ccc(C(F)(F)F)cc2)cc1)CN1CCCCC1` (stereo not given), with 0.9 µM; and `C[C@@H]1CN([C@@H](C)CO)C(=O)c2c(c3ccccc3n2C)-c2ccccc2CO[C@@H]1CN(C)C(=O)Nc1cccc(C(F)(F)F)c1`, with 10 µM. Then `C[C@@H]1CN([C@@H](C)CO)C(=O)c2c(c3ccccc3n2C)-c2ccccc2CO[C@@H]1CN(C)C(=O)c1ccc(F)cc1`, with 4.7 µM.
